Data on five compounds can be found in US4141991A, “Ferrocene derivatives” (Hoechst Aktiengesellschaft, priority 1976, dated 1979).

In general, LD50 refers to the dose at which mortality reaches 50%. A lower LD50 goes with greater toxicity.

The test system of series [1] is liver ferritin. Put plainly: Analysis of the ferritin from rat livers (quantitative determination of ferritin protein and its iron content). Type of series: in vivo. Particulars: for Ratio of iron to protein: rat liver ferritin, two successive daily doses corresponding to 52.5 mg Fe/kg; for Ratio of iron to protein / Ferritin-iron / Ferritin-protein: average values from 6 animals; for Ferritin-iron / Ferritin-protein: two successive daily doses corresponding to 52.5 mg Fe/kg (table; text 52.2), 24 hours after 2nd administration. As to the method:
24 hours after the 2nd administration the animals were killed. […] For this, ferritin is isolated from the liver by thermal denaturation, ammonium sulfate fractionation and gel filtration, and the protein is determined by amino acid analysis and the iron content by atom absorption.

Series [2] concerns liver ferritin. Put plainly: Histological comparison test of liver ferritin (Berlin-blue reaction). Particulars: 6 male rats and 6 male mice; 2 doses corresponding to 52.2 mg Fe/kg; 24 hours after 2nd administration. The format is in vivo. As to the method: After oral administration, sideropenia resulting from by-passing the normal regulating mechanism in the intestine for ionic iron, is quickly compensated. Thus, the results of an iron-deficient diet for rats and mice, such as reduced body weight, decrease of hemoglobin, of the hematocrit, of the serum iron and of the number of erythrocytes, is fully compensated by the administration once of a dose of one of the compounds according to the invention corresponding to 2 mg of iron per animal. The compounds according to the invention are resorbed well orally, the excretion of unchanged substance in urine usually being less than 1%. The compounds are distinguished by a distinct nontoxicity, the LD50 of 4-ferrocenoyl-cyclohexene thus amounting to 2000 mg/kg in mice and 3,000 mg/kg in rats. As can be shown by biochemical determination of the ferritin protein and its degree of iron saturation, the compounds are completely metabolised in the liver, that is, the iron is released and incorporated in the storage form that can be used to form hemoglobin, that is in liver ferritin, and in the case of an excess of added substance, in ferritin and in hemosiderin. These discoveries are supported by histological comparison tests, in which the increase of liver ferritin is recognisable in a Berlin-blue reaction in the form of a uniform blue shading of the cytoplasma of the liver cells, and any hemosiderin that may have formed is recognisable in the form of fine blue grains.
The compounds were administered to 6 male rats and 6 male mice on two successive days in individual doses corresponding to an iron content of 52.2 mg Fe per kg of animal. 24 hours after the 2nd administration the animals were killed. […] The quantitative determination of the ferritin protein and its iron content (table) confirm these findings. For this, ferritin is isolated from the liver by thermal denaturation, ammonium sulfate fractionation and gel filtration, and the protein is determined by amino acid analysis and the iron content by atom absorption.

Series [3] deals with ability to utilize the iron. The following applies: among 2a-d, according to details in the literature; cited from earlier work.
The test system of series [4] is mice. As to the kind of experiment: Acute toxicity (LD50) in mice.
Series [5] relates to rats. Put plainly: Acute toxicity (LD50) in rats.

Regarding “1,1'-di-(3,5,5-trimethyl-hexanoyl)-ferrocene [Example 2b]”, the “Ratio of iron to protein” value in series [1] is 0.26. Besides, in series [1] (rat liver), the Ferritin-iron stood at 148 μg/g tissue and the Ferritin-protein is 567 μg/g tissue.

As to “1,1'-di-hexahydrobenzoyl ferrocene [Example 2c]”, in series [1], the “Ratio of iron to protein” value amounted to 0.42. For the same compound, in series [1] (rat liver), the Ferritin-iron was determined as 94 μg/g tissue and the Ferritin-protein came to 224 μg/g tissue. Also, the “histological increase of the liver ferritin” value (“histological increase” below) in series [2] is reported as “do not cause any histologically recognisable increase of the liver ferritin”.

In the case of “1,1'-di-neopentyl ferrocene [Example 2d]”, the “Ratio of iron to protein” value in series [1] stood at 0.38. Besides, in series [1] (rat liver), the Ferritin-iron worked out at 61 μg/g tissue and the Ferritin-protein was 130 μg/g tissue. In addition, the “histological increase” value in series [2] is “do not cause any histologically recognisable increase of the liver ferritin”. Moreover, the “ability to utilize the iron” value in series [3] is given as “the best, especially regarding its ability to utilize the iron”.

As for `O=C([c-]1cccc1)C1CC=CCC1.[Fe+2].c1cc[cH-]c1` (centres unmarked) [Example 1, 4-Ferrocenoyl-cyclohexene], in series [1], the “Ratio of iron to protein” value is recorded as 1.19. Further, in series [1] (rat liver, after administration, from the table), the “ferritin protein and its iron content in comparison with the known compounds 2a-d” value is “clearly increased more markedly”. In series [1] (rat liver), this compound yielded a Ferritin-iron of 1133 μg/g tissue and a Ferritin-protein of 950 μg/g tissue. The LD50 in series [4] was 2000 mg/kg. Moreover, in series [2], the “hemosiderin particles, histologically” value is reported as “individual hemosiderin particles are observed”; the “histological increase” value is “in comparison with 2a and 2b exhibits a substantially greater increase of the liver ferritin”. In addition, the LD50 in series [5] is listed as 3,000 mg/kg.

For `O=C([c-]1cccc1)C1CCCCC1.[Fe+2].c1cc[cH-]c1` [Example 2a, hexahydrobenzoyl ferrocene], the “Ratio of iron to protein” value in series [1] is on record as 0.43. In series [1] (rat liver), this compound displayed a Ferritin-iron of 209 μg/g tissue and a Ferritin-protein of 475 μg/g tissue.
